Tests used:
[1] = test system: normal uninjured rat carotid arteries (medial and adventitial cell populations); assay: In vivo rat carotid artery acellularity after PDT; parameters: species or system Sprague Dawley rats; conditions: for Max % rat Artery Accelularity: Table 3, drug dose 1 μMol, 50 J/cm^2, 3 days post treatment
Procedure, shortened: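 Metallated photosensitizers light-activated in normal uninjured rat left common carotid via balloon catheter introduced through femoral arteriotomy under isoflurane; excitation 575 nm (Ga, Zn, Al, Sn) or 532 nm (Pt). Arteries harvested 3 days post-treatment, H&E-stained; medial and adventitial cell density assessed by light microscopy.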

[2] = test system: V79 (Chinese Hamster Lung Fibroblasts) cells; assay: In vitro cytotoxicity assay (light EC50, Alamar blue); format: cell-based; conditions: Table 3 porphyrins, 24 h drug incubation, 532 nm, 1.25 J/cm^2, read-out: In Vitro EC50 Light
Procedure, shortened: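 V79 cells in phenol-free 5% FBS/DMEM exposed 24 h to photosensitizer at final 0.01–5.0 μM, six replicates, then washed and light-treated, with a dark plate as control. Survival by Alamar blue after 24 h dark incubation, read at 570/600 nm.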

Row | Compound | Max % rat Artery Accelularity [1] | acellularity (rat artery) ([1]; text b234, 1 μmol/Kg (printed 1 mol/Kg for 57)) | EC50 [2]
1 | Gallium Chloride Mesoporphyrin Dimethyl Ester [Example 1] | 95% | 95% | 200 nM
2 | COC(=O)CCC1=C(C)c2cc3[n-]c(cc4nc(cc5[n-]c(cc1n2)c(CCC(=O)OC)c5C)C=C4C)cc3C.[Cl-].[Ga+3] [Example 4, Gallium Chloride Deuteroporphyrin Dimethyl Ester] | 95% |  | 400 nM
3 | CCC1=C(C)C2=[N+]3C1=Cc1c(C)c(CC)c4[n]1[Ga-2]31([Cl])[n]3c(c(C)c(CCC(=O)NC)c3=CC3=[N+]1C(=C4)C(C)=C3CCC(=O)NC)=C2 [Example 121, Gallium Chloride Mesoporphyrin N-methyl Amide] | 60% |  | 400 nM

Reference: US6827926B2, “Metallotetrapyrrolic photosensitizing agents for use in photodynamic therapy” (Miravant Pharmaceuticals, Inc., priority 2001, dated 2004)
